# Read-outs that look alike come from different tables or passages of the source.
# Target: T1, RARβ2 (Homo sapiens, UniProt P10826)
# T1 construct: expressed in transfected cells
# T1 sequence (P10826 1-448 isoform P10826-2): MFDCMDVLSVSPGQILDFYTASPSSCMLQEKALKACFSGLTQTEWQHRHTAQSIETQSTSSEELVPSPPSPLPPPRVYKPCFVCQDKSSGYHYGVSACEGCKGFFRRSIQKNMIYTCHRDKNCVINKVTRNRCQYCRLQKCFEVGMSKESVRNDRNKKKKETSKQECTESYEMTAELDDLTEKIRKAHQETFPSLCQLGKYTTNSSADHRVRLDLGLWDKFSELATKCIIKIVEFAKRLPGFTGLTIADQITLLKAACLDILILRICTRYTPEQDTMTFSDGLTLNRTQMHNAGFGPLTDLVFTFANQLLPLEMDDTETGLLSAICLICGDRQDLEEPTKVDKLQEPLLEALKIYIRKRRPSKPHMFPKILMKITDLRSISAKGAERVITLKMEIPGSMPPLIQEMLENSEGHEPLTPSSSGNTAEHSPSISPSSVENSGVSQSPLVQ
# Assay: Receptor Selection and Amplification Technology (R-SAT) functional receptor assay
# Assay type: cell-based
# From the text: The functional receptor assay, Receptor Selection and Amplification Technology (R-SAT), was used to investigate the pharmacological properties of known and novel RARβ agonists and antagonists.
# Efficacy is relative to the maximal response of the reference ligand, Am-580.
# [1] = Table 1, efficacy relative to the maximal response of the reference ligand Am-580
# [2] = Table 1, efficacy relative to the maximal response of the reference ligand Am-580, read-out: % Eff.
# [3] = Table 1, read-out: pEC50 (converted)
# [4] = Table 2, efficacy relative to the maximal response of the reference ligand Am-580, read-out: % Eff.
# [5] = Table 2, read-out: pEC50 (converted)
# [6] = Table 2, efficacy relative to the maximal response of the reference ligand Am-580
compound,measurement,setting,value
"2-Fluoro-4-octyl[1,1′-biphenyl]-4-carboxylic acid [Compound 38]",pEC50,Table 1,6.81
same,% Eff.,[1],70%
"4-Heptyl-3-methyl[1,1′-biphenyl]-4-carboxylic acid [Compound 52]",pEC50,Table 1,6.41
same,% Eff.,[1],45%
"CCCCCCCCc1ccc(-c2ccc(C(=O)O)cc2C)cc1 [Compound 1, 2-Methyl-4′-octyl[1,1′-hiphenyl]-4-carboxylic acid]",Emax,[2],39%
same,EC50,[3],2.29 nM
"CCCCCCCCCc1ccc(-c2ccc(C(=O)O)cc2)cc1 [Compound 2, 4′-Nonyl-biphenyl-4-carboxylic acid]",Emax,[2],126%
same,EC50,[3],7.94 nM
CCCCCc1ccc(-c2ccc(C(=O)O)cc2)cc1 [Compound 4],pEC50,Table 1,7.82
same,Emax,[2],44%
"CCCCCCCCc1ccc(-c2ccc(C(=O)OCCc3ccccn3)c(F)c2)cc1 [Compound 5, 3-Fluoro-4′-octyl-biphenyl-4-carboxylic acid 2-pyridin-2-yl-ethyl ester]",Emax,[4],124%
same,EC50,[5],16.2 nM
"CCCCCCCc1ccc(-c2ccc(C(=O)OCCc3ccccn3)c(F)c2)cc1 [Compound 7, 3-Fluoro-4′-heptyl-biphenyl-4-carboxylic acid 2-pyridin-2-yl-ethyl ester]",Emax,[4],95%
same,EC50,[5],19.5 nM
CCCCCCCc1ccc(-c2ccc(C(=O)O)cc2)cc1 [Compound 9],pEC50,Table 1,7.59
same,Emax,[2],76%
"CCCCCCCc1ccc(-c2ccc(C(=O)O)cc2)cc1 [Compound 10, 4′-Heptyl[1,1′-biphenyl]-4-carboxylic acid]",% Eff.,[1],64%
same,EC50,[3],26.3 nM
"CCCCCCOc1cc(C)c(-c2ccc(C(=O)O)cc2)cc1C [Compound 11, 4′-(Hexyloxy)-2′,5′-dimethyl[1,1′-biphenyl]-4-carboxylic acid]",Emax,[2],78%
same,EC50,[3],27.5 nM
CCCCCCOc1ccc(-c2ccc(C(=O)O)cc2)cc1 [Compound 12],pEC50,Table 1,7.54
same,Emax,[2],72%
"CCCCCCNC(=O)COc1nc(-c2ccc(C(=O)O)cc2)sc1C [Compound 13, 4-(4-Hexylcarbamoylmethoxy-5-methyl-thiazol-2-yl)-benzoic acid]",Emax,[2],85%
same,EC50,[3],41.7 nM
CCCCCCCCc1ccc(-c2ccc(C(=O)OCCc3ccccn3)cc2)cc1 [Compound 14],pEC50,Table 2,7.38
same,% Eff.,[6],93%
CCCCCCCCc1ccc(-c2ccc(C(=O)n3cnc(NC(C)=O)n3)cc2)cc1 [Compound 15],pEC50,Table 1,7.37
same,Emax,[2],76%
CCCCCCc1ccc(-c2ccc(C(=O)O)cc2)cc1 [Compound 16],pEC50,Table 1,7.34
same,Emax,[2],37%
"CCCCCCCc1ccc(-c2ccc(C(=O)OCc3ccco3)cc2)cc1 [Compound 17, 4′-Heptyl-biphenyl-4-carboxylic acid furan-2-ylmethyl Ester]",% Eff.,[6],33%
same,EC50,[5],45.7 nM
"CCCCOCCOc1ccc(-c2ccc(C(=O)O)cc2)cc1 [Compound 18, 4′-(2-Butoxyethoxy)-[1,1-biphenyl]-4-carboxylic acid]",Emax,[2],108%
same,EC50,[3],47.9 nM
"CCCCCCCc1ccc(-c2ccc(C(=O)OCCC#N)cc2)cc1 [Compound 19, 4′-Heptyl-biphenyl-4-carboxylic acid 2-cyano-ethyl ester]",Emax,[4],36%
same,EC50,[5],52.5 nM
CCCCCCCCCCOc1ccc(-c2ccc(C(=O)O)cc2)cc1 [Compound 20],pEC50,Table 1,7.26
same,Emax,[2],98%
CCCCCCCc1ccc(-c2ccc(C(=O)OCc3ccco3)cc2)cc1 [Compound 21],pEC50,Table 2,7.26
same,% Eff.,[6],106%
"CCCCCCCc1ccc(-c2ccc(C(=O)O)cc2F)cc1 [Compound 22, 2-Fluoro-4′-heptyl[1,1′-biphenyl]-4-carboxylic acid]",Emax,[2],36%
same,EC50,[3],57.5 nM
"CCCCCCCOc1ccc(-c2ccc(C(=O)OCCC#N)cc2)cc1 [Compound 23, 4′-Heptyloxy-biphenyl-4-carboxylic acid 2-cyano-ethyl ester]",Emax,[4],46%
same,EC50,[5],60.3 nM
CCCCCCCOc1ccc(-c2ccc(C(=O)O)cc2)cc1 [Compound 24],pEC50,Table 1,7.21
same,Emax,[2],58%
"CC(C)CCCCOc1ccc(-c2ccc(C(=O)O)cc2)cc1 [Compound 25, 4′-(5-Methyl-hexyloxy)-biphenyl-4-carboxylic acid]",pEC50,Table 1,7.20
same,Emax,[2],65%
"O=C(O)c1ccc(-c2ccc(OCCC=C(C3CC3)C3CC3)cc2)cc1 [Compound 26, 4′[(4,4-Dicyclopropyl-3-butenyl)oxy][1,1-biphenyl]-4-carboxylic acid]",% Eff.,[1],36%
"CCCCOCCOc1nc(-c2ccc(C(=O)O)cc2)sc1C [Compound 27, 4-[4-(2-Butoxy-ethoxy)-5-methyl-thiazol-2-yl]-benzoic acid]",Emax,[2],95%
same,EC50,[3],75.9 nM
CCCCCCCCc1ccc(-c2ccc(C(=O)OCCc3ccccn3)cc2)cc1 [Compound 28],pEC50,Table 2,7.09
same,% Eff.,[6],70%
CCCCCCCCc1ccc(-c2ccc(C(=O)Nc3ccc(C)cn3)cc2)cc1 [Compound 29],pEC50,Table 1,7.08
same,Emax,[2],78%
"CCCCCCCOc1ccc(-c2ccc(C(=O)OCCc3ccccn3)cc2)cc1 [Compound 30, 4′-Heptyloxy-biphenyl-4-carboxylic acid 2-pyridin-2-yl-ethyl ester]",Emax,[4],62%
same,EC50,[5],91.2 nM
"CCCCCCCCc1ccc(-c2ccc(C(=O)C(=O)O)cc2)cc1 [Compound 31, (4′-Octyl-biphenyl-4-yl)-oxo-acetic acid]",Emax,[2],80%
same,EC50,[3],95.5 nM
CCCCCCCCOc1ccc(-c2ccc(C(=O)O)cc2)cc1 [Compound 32],pEC50,Table 1,7.02
same,Emax,[2],70%
"CCCOCCOc1nc(-c2ccc(C(=O)O)cc2)sc1C [Compound 33, 4-[5-Methyl-4-(2-propoxy-ethoxy)-thiazol-2-yl]-benzoic acid]",Emax,[2],98%
same,EC50,[3],110 nM
"CCCCCCCCc1ccc(-c2ccc(C(=O)OCCC#N)cc2)cc1 [Compound 34, 4′-Octyl-biphenyl-4-carboxylic acid 2-cyano-ethyl ester]",Emax,[4],71%
same,EC50,[5],112 nM
CCCCCCCCc1ccc(-c2ccc(C(=O)O)cc2)cc1 [Compound 35],pEC50,Table 1,6.94
same,% Eff.,[1],83%
"CCCCCCCc1ccc(-c2ccc(C(=O)O)c(F)c2)cc1 [Compound 36, 3-Fluoro-4′-heptyl[1,1′-biphenyl]-4-carboxylic acid]",Emax,[2],42%
same,EC50,[3],123 nM
"CCCCCCCc1ccc(-c2ccc(C(=O)NO)cc2)cc1 [Compound 37, 4′-Heptyl-biphenyl-4-carboxylic acid hydroxyamide]",Emax,[2],49%
same,EC50,[3],135 nM
"CCCCCCCOc1ccc(-c2ccc(C(=O)OCCC#N)cc2)cc1 [Compound 39, 4′-Heptyloxy-biphenyl-4-carboxylic acid 2-cyano-ethyl ester]",% Eff.,[6],42%
same,EC50,[5],174 nM
CCCCCCCCc1ccc(-c2ccc(C(=O)OCCc3ccccn3)cc2)cc1 [Compound 40],pEC50,Table 2,6.75
same,% Eff.,[6],82%
"CCCCCCOc1ccc(-c2ccc(C(=O)OCc3ccco3)cc2)cc1 [Compound 41, 4′-Hexyloxy-biphenyl-4-carboxylic acid furan-2-ylmethyl ester]",Emax,[4],25%
same,EC50,[5],178 nM
"CCCCCCCCOc1ccc(-c2ccc(C(=O)OCCC#N)cc2)cc1 [Compound 42, 4′-Octyloxy-biphenyl-4-carboxylic acid 2-cyano-ethyl ester]",Emax,[4],46%
same,EC50,[5],195 nM
"CCCCCCCCOc1ccc(-c2ccc(C(=O)OCc3ccco3)cc2)cc1 [Compound 43, 4′-Octyloxy-biphenyl-4-carboxylic acid furan-2-ylmethyl ester]",Emax,[4],67%
same,EC50,[5],214 nM
"CCCCOCCOc1cc(C)c(-c2ccc(C(=O)O)cc2)cc1C [Compound 44, 4′-(2-Butoxyethoxy)-2′,5′-dimethyl[1,1-biphenyl]-4-carboxylic acid]",Emax,[2],41%
same,EC50,[3],245 nM
"CCCCCCCc1ccc(-c2ccc(C(=O)NN)cc2)cc1 [Compound 45, 4′-Heptyl-biphenyl-4-carboxylic acid hydrazide]",Emax,[2],78%
same,EC50,[3],257 nM
"CCCCC(CC)COc1nc(-c2ccc(C(=O)O)cc2)sc1C (stereo not shown) [Compound 46, 4-[4-(2-Ethyl-hexyloxy)-5-methyl-thiazol-2-yl]-benzoic acid]",Emax,[2],54%
same,EC50,[3],263 nM
"O=C(O)c1ccc(-c2ccc(OCCC=C(C3CC3)C3CC3)cc2)cc1 [Compound 47, 4′-(4,4-Dicyclopropyl-but-3-enyloxy)-biphenyl-4-carboxylic acid]",% Eff.,[1],58%
"CCCCCCCCc1ccc(-c2ccc(C(=O)OCc3ccco3)cc2)cc1 [Compound 48, 4′-Octyl-biphenyl-4-carboxylic acid furan-2-ylmethyl ester]",Emax,[4],49%
same,EC50,[5],275 nM
CCCC1CCCC(c2ccc(-c3ccc(C(=O)O)cc3)cc2)CC1 (stereo not shown) [Compound 49],pEC50,Table 1,6.55
same,Emax,[2],59%
"CCCCCCCCN1CCN(c2ccc(C(=O)O)cc2)CC1 [Compound 50, 4-(4-Octyl-piperazin-1-yl)-benzoic acid]",Emax,[2],85%
same,EC50,"pEC50, Table 1",295 nM
